In patent US20070275968A1, “Substituted Biphenyl Derivative” (priority 2004, published 2007):

Legend:
[1] = tested on: NRK-49F cells; assay: Collagen synthesis inhibition test; type: cell-based; details: Rattus norvegicus, 25 ng/mL TGF-β added, cultured about 44 hr, 3H-labeled proline taken into collagen, no TGF-β = 100% inhibition, no test compound = 0% inhibition, read-out: Collagen synthesis inhibiting activity IC50
Experimental: Collagen Synthesis Inhibition Test
Collagen synthesis inhibiting activity was evaluated by the following assay.
NRK-49F cells (Dainippon Pharmaceutical) are seeded into a 96-well plate. After becoming confluent, the medium is changed to a serum-free Dulbecco's modified MEM medium (Invitrogen) containing 5 μg/mL insulin, 5 μg/mL transferin, and 5 ng/mL selenious acid. One day later, the medium is changed to a serum-free Dulbecco's modified MEM medium (80 μl) containing 10 ng/mL IGF-II (Sigma) and 50 μg/mL L-ascorbic acid (Sigma), and a ten times concentration of a test compound (10 μl) is added thereto. Thirty minutes later, 25 ng/mL TGF-β (R&D System: 10 μL) is added to the medium, and the cells are cultured for about 44 hr. Twenty four hours before the termination of the culturing, ^3H-labeled proline (Amersham: 1 μCi) is added so as to be taken into collagen in the cells. When the culturing is terminated, 30% trichloroacetic acid (50 μL) is added to the medium. After leaving for 20 min, proteins are precipitated by centrifugation at 3000 rpm for 10 min. The supernatant is removed, and the residue is twice washed with 200 μL of a washing solution (ethanol:ether=3:1). The precipitate is air-dried, and the washing solution is sufficiently removed. After addition of 60 μL of a collagenase solution (2 mg/mL collagenase VII (Sigma), 50 mM Tris-HCl (pH 7.4), 5 mM CaCl2), the resulting mixture is treated at 37° C. for 2 hr to decompose collagen. Then, 90 μL of 15% trichloroacetic acid and 5% tannic acid are added thereto. The resulting mixture is left for 20 min and then centrifuged at 3000 rpm for 10 min. The supernatant (50 μL) is transferred to LumaPlate (PerkinElmer Lifescience) and is air-dried. Then, the amount of ^3H is measured by a Top Count.

SMILES	melting point [°C]	IC50 [1] [nM]
Cc1cccc(-c2n[nH]cc2-c2ccc(F)c(-c3ccc(S(N)(=O)=O)cc3)c2)n1 [Example 190, 2′-Fluoro-5′-[3-(6-methylpyridin-2-yl)-1H-pyrazol-4-yl]-1,1′-biphenyl-4-sulfonamide]	115 to 118	40
Cc1cccc(-c2n[nH]cc2-c2ccc(F)c(-c3cn[nH]c3)c2)n1 [Example 194, 2-{4-[4-Fluoro-3-(1H-pyrazol-4-yl)phenyl]-1H-pyrazol-3-yl}-6-methylpyridine]	110 to 112	10
Cc1cccc(-c2n[nH]cc2-c2ccc(F)c(-c3cnn(C)c3)c2)n1 [Example 195, 2-{4-[4-Fluoro-3-(1-methyl-1H-pyrazol-4-yl)phenyl]-1H-pyrazol-3-yl}-6-methylpyridine]	155 to 156	10
NS(=O)(=O)c1ccc(-c2cc(-c3c[nH]nc3-c3ccccn3)ccc2F)cc1 [Example 202, 2′-Fluoro-5′-(3-pyridin-2-yl-1H-pyrazol-4-yl)-1,1′-biphenyl-4-sulfonamide]	128	290
Cc1cccc(-c2n[nH]cc2-c2ccc(F)c(-c3c[nH]cn3)c2)n1 [Example 206, 2-{4-[4-Fluoro-3-(1H-imidazol-4-yl)phenyl]-1H-pyrazol-3-yl}-6-methylpyridine]	229 to 233	10
Cc1cccc(-c2n[nH]cc2-c2ccc(F)c(-c3c[nH]c(CCO)n3)c2)n1 [Example 209, 2-(4-{2-Fluoro-5-[3-(6-methylpyridin-2-yl)-1H-pyrazol-4-yl]phenyl}-1H-imidazol-2-yl)ethanol]	219 to 220	50
Cc1cccc(-c2n[nH]cc2-c2ccc(F)c(-c3cn4c(n3)S(=O)(=O)CC4)c2)n1 [Example 212, 6-{2-Fluoro-5-[3-(6-methylpyridin-2-yl)-1H-pyrazol-4-yl]phenyl}-2,3-dihydroimidazo[2,1-b][1,3]thiazole 1,1-dioxide]	134 to 138	110
Cc1cccc(-c2nc(N)sc2-c2ccc(F)c(-c3cnn(C)c3)c2)n1 [Example 217, 5-[4-Fluoro-3-(1-methyl-1H-pyrazol-4-yl)phenyl]-4-(6-methylpyridin-2-yl)-1,3-thiazol-2-amine]	153 to 155	10
